According to patent publication US11773379B2, “Enzymes and reagents for measurement of short chain fatty acids” (SYSMEX CORPORATION, priority 2018, dated 2023):

Tests used:
[1] = test system: BKII (recombinant butyrate kinase derived from Acetoanaerobium sticklandii); assay: Substrate specificity of butyrate kinase BKII; format: biochemical; conditions: 100 mM sodium salt of fatty acid in second reagent, pH 7.5
Description: (§1) Various fatty acids shown in Table 1 were used as a substrate. The measurement was performed using a 7180 type Hitachi automatic analyzer (Hitachi High-Tech Corporation). […] PHARMA CORPORATION) • 5 U/mL ADP-HK II (ADP dependent hexokinase: […] PHARMA CORPORATION) […] In the composition of the second reagent, “sodium salts of various fatty acids” means any one kind of sodium caprylate, sodium caproate, sodium valerate, sodium isovalerate, sodium butyrate, sodium isobutyrate, sodium propionate, sodium acetate, sodium lactate, and sodium succinate. Isobutyric acid, valeric acid, isovaleric acid, caproic acid, and octanoic acid, which are commercially available fatty acids and are not sold as sodium salts, were adjusted to pH 7.5 with sodium hydroxide. […] [Measurement Parameters of Automatic Analyzer] • Analysis method: […]

[2] = test system: BKIII (recombinant butyrate kinase derived from Thermosediminibacter oceani); assay: Substrate specificity of butyrate kinase BKIII; format: biochemical; conditions: 100 mM sodium salt of fatty acid in second reagent, pH 7.5
Description: as §1

acetate kinase (AK) = target: T1, acetate kinase (AK) (Escherichia coli, UniProt P0A6A3); assay: Comparative Example 1: measurement using acetate kinase, reaction recovery rate; format: biochemical, E. coli; conditions: 5 mM substrate
T1 construct: purchased Sigma-Aldrich Co. LLC
Description: (§2) It was examined whether butyric acid could be measured by using acetate kinase (AK) or propionic acid kinase (PK) instead of butyrate kinase. For comparison, measurement using BKIII was also performed.
(§3) Neutralized 100 mM acetic acid, butyric acid, and isobutyric acid were mixed with physiological saline to prepare a 5 mM acetic acid aqueous solution, a 5 mM butyric acid aqueous solution, and a 5 mM isobutyric acid aqueous solution, respectively.
(§4) The composition of the first reagent was the same as that of the first reagent used for examining the substrate specificity of Reference Example 7.
(§5) AK (Sigma-Aldrich Co. LLC., derived from E. coli), PK (MyBioSource, recombinant protein) and BKIII were added to 100 mM Tris-HCl (pH 7.5) (Sigma-Aldrich Co. LLC.), respectively, to prepare an enzyme solution containing each enzyme at a concentration of 1.25 to 40 U/mL.
(§6) The measurement was performed using a 7180 type Hitachi automatic analyzer (Hitachi High-Tech Corporation). The measurement parameters of the automatic analyzer were the same as in Example 2.
(§7) In the same manner as in Example 2, butyric acid and isobutyric acid in the sample were measured by the automatic analyzer. The reaction recovery rate (%) was calculated by dividing the measured value by the theoretical absorbance value. The theoretical absorbance is the absorbance when all the substrate (butyric acid or isobutyric acid) in the sample is converted to NADPH, and is calculated by the following formula. […] (Theoretical absorbance)= (substrate concentration in sample)×[(sample volume)/(sample volume+ first reagent amount+second reagent amount)]×(NADPH millimole molecular extinction coefficient at 340 nm)= 5×[3.5/(3.5+140+35)]×6.3= 0.617

[3] = test system: propionic acid kinase (PK); assay: Comparative Example 1: measurement using propionic acid kinase, reaction recovery rate; format: biochemical; conditions: 5 mM substrate
Description: as §2, §3, §4, §5, §6, §7

BKIII = assay: Comparative Example 1: measurement using BKIII, reaction recovery rate; format: biochemical, Thermosediminibacter oceani; conditions: 5 mM substrate
Description: as §2, §3, §4, §5, §6, §7

[4] = test system: butyrate-acetoacetate-CoA transferase (EC 2.8.3.9); assay: Comparative Example 3: measurement using butyrate-acetoacetate-CoA transferase, reaction recovery rate; format: biochemical, E. coli; conditions: 60 μg/mL butyrate-acetoacetate-CoA transferase in second reagent; 5 mM substrate
Description: It was examined whether acetic acid and butyric acid could be measured by the reaction of formula (12), which is the reverse reaction of the formula (11), using butyrate-[…] transferase instead of butyrate kinase. […] The measurement was performed using a 7180 type Hitachi automatic analyzer (Hitachi High-Tech Corporation). […] LLC.) • 0.35 mM Acetoacetyl-CoA (Sigma-Aldrich Co. LLC.) • 2 mM MgCl2 (FUJIFILM Wako Pure Chemical Corporation) • 0.25 mM β-NADH (Oriental Yeast Co., Ltd.) • 5 U/mL 3-hydroxybutyrate dehydrogenase (FUJIFILM Wako Pure Chemical Corporation) […] LLC.) The measurement was performed using a 7180 type Hitachi automatic analyzer (Hitachi High-Tech Corporation). The measurement parameters of the automatic analyzer were the same as in Example 2.

[5] = test system: acetate-CoA transferase (EC 2.8.3.8); assay: Comparative Example 2: measurement using acetate-CoA transferase, reaction recovery rate; format: biochemical, E. coli; conditions: 30 μg/mL acetate-CoA transferase in second reagent; 5 mM substrate
From the text: Acetate-CoA transferase (EC 2.8.3.8) has been reported to catalyze the reaction represented by the following formula (9) (EC 2.8.3.8 in the Enzyme nomenclature database on the ExPASy-SIB Bioinformatics Resource Portal).). It was examined whether butyric acid could be measured by the reaction of formula (10), which is the reverse reaction of formula (9), using acetate-CoA transferase instead of butyrate kinase The acetic acid produced by the formula (10) by acetate-CoA transferase was confirmed by the reaction with AK of Comparative Example 1. The measurement was performed using a 7180 type Hitachi automatic analyzer (Hitachi High-Tech Corporation). [Chemical formula 7] Acyl-CoA+acetic acid ? fatty acid+acetyl-CoA (9) Butyric acid+acetyl-CoA→butyrate-CoA+acetic acid (10)
The 5 mM butyric acid and 5 mM isobutyric acid aqueous solution used in Comparative Example 1 were used. […]
In the same manner as in Example 2, butyric acid and isobutyric acid in the sample were measured by the automatic analyzer. The reaction recovery rate (%) was calculated by dividing the measured value by the theoretical absorbance value of Comparative Example 1.

[6] = AK activity value in reaction mixed solution 0.3 U/mL
[7] = AK activity value in reaction mixed solution 0.5 U/mL
[8] = AK activity value in reaction mixed solution 1.0 U/mL
[9] = AK activity value in reaction mixed solution 2.0 U/mL
[10] = AK activity value in reaction mixed solution 4.0 U/mL
[11] = AK activity value in reaction mixed solution 8.0 U/mL
[12] = PK activity value in reaction mixed solution 0.3 U/mL
[13] = PK activity value in reaction mixed solution 0.5 U/mL
[14] = PK activity value in reaction mixed solution 1.0 U/mL
[15] = PK activity value in reaction mixed solution 2.0 U/mL
[16] = PK activity value in reaction mixed solution 4.0 U/mL
[17] = PK activity value in reaction mixed solution 8.0 U/mL
[18] = BKIII activity value in reaction mixed solution 0.3 U/mL
[19] = BKIII activity value in reaction mixed solution 0.5 U/mL
[20] = BKIII activity value in reaction mixed solution 1.0 U/mL
[21] = BKIII activity value in reaction mixed solution 2.0 U/mL
[22] = BKIII activity value in reaction mixed solution 4.0 U/mL
[23] = BKIII activity value in reaction mixed solution 8.0 U/mL

T1 sequence (P0A6A3 whole entry): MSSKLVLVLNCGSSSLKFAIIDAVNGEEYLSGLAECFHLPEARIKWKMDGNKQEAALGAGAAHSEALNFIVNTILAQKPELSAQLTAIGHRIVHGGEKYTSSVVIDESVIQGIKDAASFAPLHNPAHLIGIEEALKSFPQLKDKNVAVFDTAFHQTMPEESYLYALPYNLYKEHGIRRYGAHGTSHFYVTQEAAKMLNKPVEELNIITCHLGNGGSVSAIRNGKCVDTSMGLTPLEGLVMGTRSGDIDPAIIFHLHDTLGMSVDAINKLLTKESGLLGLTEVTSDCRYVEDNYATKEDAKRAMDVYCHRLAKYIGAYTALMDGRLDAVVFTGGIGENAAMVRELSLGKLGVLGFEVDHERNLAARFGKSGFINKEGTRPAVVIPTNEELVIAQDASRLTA

Compound	substrate specificity, relative value when the activity value with respect to butyric acid is 100 [1]	substrate specificity, relative value when the activity value with respect to butyric acid is 100 [2]	reaction recovery rate (acetate kinase (AK); [6])	reaction recovery rate (acetate kinase (AK); [7])	reaction recovery rate (acetate kinase (AK); [8])	reaction recovery rate (acetate kinase (AK); [9])	reaction recovery rate (acetate kinase (AK); [10])	reaction recovery rate (acetate kinase (AK); [11])	reaction recovery rate [3, 12]	reaction recovery rate [3, 13]	reaction recovery rate [3, 14]	reaction recovery rate [3, 15]	reaction recovery rate [3, 16]	reaction recovery rate [3, 17]	reaction recovery rate (BKIII; [18])	reaction recovery rate (BKIII; [19])	reaction recovery rate (BKIII; [20])	reaction recovery rate (BKIII; [21])	reaction recovery rate (BKIII; [22])	reaction recovery rate (BKIII; [23])	also measured
CC(=O)O [Acetic acid]	1%	1%	16%	28%	44%	62%	78%	88%	0%	2%	3%	9%	21%	39%	0%	0%	0%	0%	1%	2%	Reaction recovery rate (%) [4]: 1%
CCCC(=O)O [Butyric acid]	100%	100%	0%	0%	0%	0%	0%	0%	0%	0%	0%	2%	4%	8%	36%	53%	70%	84%	93%	98%	Reaction recovery rate (%) [5]: 3%; Reaction recovery rate (%) [4]: 2%
CC(C)C(=O)O [Isobutyric acid]	84%	80%	0%	0%	0%	0%	0%	0%	0%	0%	0%	0%	0%	0%	40%	55%	70%	83%	91%	96%	Reaction recovery rate (%) [5]: 4%; Reaction recovery rate (%) [4]: 2%
